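GI50 is the concentration that inhibits growth by half. TGI: concentration producing complete growth inhibition.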
Tests used:
Test in all cases: inhibition of tumour cell growth, NCI panel, 384-well format
NCI/ADR-RES ovarian = test system: NCI/ADR-RES ovarian
EKVX NSCLC = test system: EKVX NSCLC
HL-60(TB) leukemia = test system: HL-60(TB) leukemia
A549 NSCLC = test system: A549 NSCLC
DU-145 prostate = test system: DU-145 prostate
IGROV1 ovarian = test system: IGROV1 ovarian
MCF7 breast = test system: MCF7 breast
BT-549 breast = test system: BT-549 breast
T-47D breast = test system: T-47D breast
HOP-62 NSCLC = test system: HOP-62 NSCLC
UACC-62 melanoma = test system: UACC-62 melanoma
NCI-H460 NSCLC = test system: NCI-H460 NSCLC
HCT-15 colon = test system: HCT-15 colon
SF-268 CNS = test system: SF-268 CNS
HT29 colon = test system: HT29 colon
MDA-MB-231 breast = test system: MDA-MB-231 breast
TK-10 renal = test system: TK-10 renal
OVCAR-5 ovarian = test system: OVCAR-5 ovarian
COLO 205 colon = test system: COLO 205 colon
U251 glioblastoma = test system: U251 glioblastoma
MALME-3M melanoma = test system: MALME-3M melanoma
SN12C renal = test system: SN12C renal
UO-31 renal = test system: UO-31 renal
KM12 colon = test system: KM12 colon
SK-MEL-2 melanoma = test system: SK-MEL-2 melanoma
HS 578T breast = test system: HS 578T breast
PC-3 prostate = test system: PC-3 prostate
NCI-H322M lung = test system: NCI-H322M lung
RPMI-8226 leukemia = test system: RPMI-8226 leukemia
LOX IMVI melanoma = test system: LOX IMVI melanoma
SK-MEL-5 melanoma = test system: SK-MEL-5 melanoma
CAKI-1 renal = test system: CAKI-1 renal
SF-295 CNS = test system: SF-295 CNS
MDA-MB-435 melanoma = test system: MDA-MB-435 melanoma
MOLT-4 leukemia = test system: MOLT-4 leukemia
K-562 leukemia = test system: K-562 leukemia
A498 renal = test system: A498 renal
SNB-19 CNS = test system: SNB-19 CNS
SF-539 CNS = test system: SF-539 CNS
OVCAR-8 ovarian = test system: OVCAR-8 ovarian
NCI-H226 lung = test system: NCI-H226 lung
RXF 393 renal = test system: RXF 393 renal
SK-MEL-28 melanoma = test system: SK-MEL-28 melanoma
OVCAR-3 ovarian = test system: OVCAR-3 ovarian
MDA-MB-468 breast = test system: MDA-MB-468 breast
OVCAR-4 ovarian = test system: OVCAR-4 ovarian
M14 melanoma = test system: M14 melanoma
786-0 renal = test system: 786-0 renal
UACC-257 melanoma = test system: UACC-257 melanoma
HCC-2998 colon = test system: HCC-2998 colon
HOP-92 NSCLC = test system: HOP-92 NSCLC
SR leukemia = test system: SR leukemia
SK-OV-3 ovarian = test system: SK-OV-3 ovarian
NCI-H23 lung = test system: NCI-H23 lung
NCI-H522 lung = test system: NCI-H522 lung
ACHN renal = test system: ACHN renal
SNB-75 CNS = test system: SNB-75 CNS
SW-620 colon = test system: SW-620 colon
HCT-116 colon = test system: HCT-116 colon

SMILES: CC(C)C[C@H](NC(=O)CNC(=O)c1cc(Cl)ccc1Cl)B1OC(=O)CC(CC(=O)O)(C(=O)O)O1 (stereo partly drawn)
- GI50 (NCI/ADR-RES ovarian): 189 nM
- TGI (NCI/ADR-RES ovarian): 448 nM
- GI50 (EKVX NSCLC): 97.4 nM
- TGI (EKVX NSCLC): 448 nM
- GI50 (HL-60(TB) leukemia): < 13.4 nM
- TGI (HL-60(TB) leukemia): 19.9 nM
- GI50 (A549 NSCLC): 106 nM
- TGI (A549 NSCLC): 1510 nM
- GI50 (DU-145 prostate): 44.1 nM
- TGI (DU-145 prostate): 233 nM
- GI50 (IGROV1 ovarian): 70.6 nM
- TGI (IGROV1 ovarian): 178 nM
- GI50 (MCF7 breast): < 21.3 nM
- TGI (MCF7 breast): 619 nM
- GI50 (BT-549 breast): 16.1 nM
- TGI (BT-549 breast): 30.8 nM
- GI50 (T-47D breast): 25.6 nM
- TGI (T-47D breast): 70.8 nM
- GI50 (HOP-62 NSCLC): 42.3 nM
- TGI (HOP-62 NSCLC): 164 nM
- GI50 (UACC-62 melanoma): 25.6 nM
- TGI (UACC-62 melanoma): 66.1 nM
- GI50 (NCI-H460 NSCLC): 92.3 nM
- TGI (NCI-H460 NSCLC): 317 nM
- GI50 (HCT-15 colon): 36.7 nM
- TGI (HCT-15 colon): 101 nM
- GI50 (SF-268 CNS): 23.6 nM
- TGI (SF-268 CNS): 53.8 nM
- GI50 (HT29 colon): 23.4 nM
- TGI (HT29 colon): 62.4 nM
- GI50 (MDA-MB-231 breast): 33.3 nM
- TGI (MDA-MB-231 breast): 86.3 nM
- GI50 (TK-10 renal): < 18 nM
- TGI (TK-10 renal): 53 nM
- GI50 (OVCAR-5 ovarian): 50.5 nM
- TGI (OVCAR-5 ovarian): 181 nM
- GI50 (COLO 205 colon): 58 nM
- TGI (COLO 205 colon): 557 nM
- GI50 (U251 glioblastoma): 98.5 nM
- TGI (U251 glioblastoma): 472 nM
- GI50 (MALME-3M melanoma): < 13.7 nM
- TGI (MALME-3M melanoma): 27.5 nM
- GI50 (SN12C renal): 87.3 nM
- TGI (SN12C renal): 263 nM
- GI50 (UO-31 renal): 18 nM
- TGI (UO-31 renal): 36.6 nM
- GI50 (KM12 colon): 54.7 nM
- TGI (KM12 colon): 148 nM
- GI50 (SK-MEL-2 melanoma): 21.5 nM
- TGI (SK-MEL-2 melanoma): 42 nM
- GI50 (HS 578T breast): 16.7 nM
- TGI (HS 578T breast): 32.7 nM
- GI50 (PC-3 prostate): 48.1 nM
- TGI (PC-3 prostate): 113 nM
- GI50 (NCI-H322M lung): 351 nM
- TGI (NCI-H322M lung): 2020 nM
- GI50 (RPMI-8226 leukemia): < 13.2 nM
- TGI (RPMI-8226 leukemia): < 17.7 nM
- GI50 (LOX IMVI melanoma): 33.9 nM
- TGI (LOX IMVI melanoma): 125 nM
- GI50 (SK-MEL-5 melanoma): < 15.5 nM
- TGI (SK-MEL-5 melanoma): 28.1 nM
- GI50 (CAKI-1 renal): < 20.4 nM
- TGI (CAKI-1 renal): 152 nM
- GI50 (SF-295 CNS): 30.5 nM
- TGI (SF-295 CNS): 88.4 nM
- GI50 (MDA-MB-435 melanoma): < 14.8 nM
- TGI (MDA-MB-435 melanoma): 28.3 nM
- GI50 (MOLT-4 leukemia): < 12.8 nM
- TGI (MOLT-4 leukemia): < 17.4 nM
- GI50 (K-562 leukemia): 17.2 nM
- TGI (K-562 leukemia): 35 nM
- GI50 (A498 renal): < 23.7 nM
- TGI (A498 renal): 191 nM
- GI50 (SNB-19 CNS): 59.4 nM
- TGI (SNB-19 CNS): 272 nM
- GI50 (SF-539 CNS): 15.1 nM
- TGI (SF-539 CNS): 31.3 nM
- GI50 (OVCAR-8 ovarian): 66.8 nM
- TGI (OVCAR-8 ovarian): 158 nM
- GI50 (NCI-H226 lung): < 13.5 nM
- TGI (NCI-H226 lung): 24.5 nM
- GI50 (RXF 393 renal): < 14 nM
- TGI (RXF 393 renal): 27.1 nM
- GI50 (SK-MEL-28 melanoma): < 14.4 nM
- TGI (SK-MEL-28 melanoma): 25.3 nM
- GI50 (OVCAR-3 ovarian): < 14.3 nM
- TGI (OVCAR-3 ovarian): 26.4 nM
- GI50 (MDA-MB-468 breast): < 14.4 nM
- TGI (MDA-MB-468 breast): < 20.6 nM
- GI50 (OVCAR-4 ovarian): 53.2 nM
- TGI (OVCAR-4 ovarian): 117 nM
- GI50 (M14 melanoma): 16.5 nM
- TGI (M14 melanoma): 32.6 nM
- GI50 ([…]-0 renal): 24 nM
- TGI (786-0 renal): 91.6 nM
- GI50 (UACC-257 melanoma): 17.3 nM
- TGI (UACC-257 melanoma): 33.3 nM
- GI50 (HCC-2998 colon): 51.5 nM
- TGI (HCC-2998 colon): 101 nM
- GI50 (HOP-92 NSCLC): 30 nM
- TGI (HOP-92 NSCLC): 71.8 nM
- GI50 (SR leukemia): < 17.7 nM
- TGI (SR leukemia): < 21.6 nM
- GI50 (SK-OV-3 ovarian): 204 nM
- TGI (SK-OV-3 ovarian): 1550 nM
- GI50 (NCI-H23 lung): 26.8 nM
- TGI (NCI-H23 lung): 75.5 nM
- GI50 (NCI-H522 lung): 15.7 nM
- TGI (NCI-H522 lung): 31.1 nM
- GI50 (ACHN renal): < 20.3 nM
- TGI (ACHN renal): 63.7 nM
- GI50 (SNB-75 CNS): 47.4 nM
- TGI (SNB-75 CNS): 118 nM
- GI50 (SW-620 colon): < 15.3 nM
- TGI (SW-620 colon): 33.2 nM
- GI50 (HCT-116 colon): < 15.9 nM
- TGI (HCT-116 colon): 34.7 nM
